Test results from the NIST ThermoML archive (doi:10.1016/j.tca.2008.02.023).
Numbers after ± are expanded uncertainties.

Test: excess molar enthalpy (molar enthalpy of mixing); xn = mol fraction of the nth substance listed
Conditions: 101 kPa, Liquid, Calvet calorimetry

## [Bi] [bismuth] + [Cu]
1073.2 K, x2 = 0.0427
  excess molar enthalpy: 0.194 ± 0.00215 kcal/mol
1073.2 K, x2 = 0.0749
  excess molar enthalpy: 0.337 ± 0.00359 kcal/mol
1073.2 K, x2 = 0.0819
  excess molar enthalpy: 0.358 ± 0.00382 kcal/mol
1073.2 K, x2 = 0.1184
  excess molar enthalpy: 0.493 ± 0.00526 kcal/mol
1073.2 K, x2 = 0.1417
  excess molar enthalpy: 0.584 ± 0.00598 kcal/mol
1073.2 K, x2 = 0.1524
  excess molar enthalpy: 0.603 ± 0.00621 kcal/mol
1073.2 K, x2 = 0.1852
  excess molar enthalpy: 0.697 ± 0.00717 kcal/mol
1073.2 K, x2 = 0.2051
  excess molar enthalpy: 0.763 ± 0.00789 kcal/mol
1073.2 K, x2 = 0.216
  excess molar enthalpy: 0.771 ± 0.00789 kcal/mol
1073.2 K, x2 = 0.2446
  excess molar enthalpy: 0.834 ± 0.0086 kcal/mol
1073.2 K, x2 = 0.2648
  excess molar enthalpy: 0.887 ± 0.00908 kcal/mol
1073.2 K, x2 = 0.2722
  excess molar enthalpy: 0.891 ± 0.00908 kcal/mol
1073.2 K, x2 = 0.2982
  excess molar enthalpy: 0.937 ± 0.00956 kcal/mol
1073.2 K, x2 = 0.3165
  excess molar enthalpy: 0.973 ± 0.01 kcal/mol
1073.2 K, x2 = 0.3228
  excess molar enthalpy: 0.974 ± 0.01 kcal/mol
1073.2 K, x2 = 0.3461
  excess molar enthalpy: 1 ± 0.0103 kcal/mol
1073.2 K, x2 = 0.3622
  excess molar enthalpy: 1.02 ± 0.0105 kcal/mol
1073.2 K, x2 = 0.3683
  excess molar enthalpy: 1.02 ± 0.0105 kcal/mol
1073.2 K, x2 = 0.3893
  excess molar enthalpy: 1.04 ± 0.0108 kcal/mol
1073.2 K, x2 = 0.4032
  excess molar enthalpy: 1.04 ± 0.0105 kcal/mol
1273.2 K, x2 = 0.1194
  excess molar enthalpy: 0.496 ± 0.00526 kcal/mol
1273.2 K, x2 = 0.2184
  excess molar enthalpy: 0.84 ± 0.0086 kcal/mol
1273.2 K, x2 = 0.2984
  excess molar enthalpy: 1.04 ± 0.0105 kcal/mol
1273.2 K, x2 = 0.3648
  excess molar enthalpy: 1.15 ± 0.0117 kcal/mol
1273.2 K, x2 = 0.4198
  excess molar enthalpy: 1.21 ± 0.0124 kcal/mol
1273.2 K, x2 = 0.47
  excess molar enthalpy: 1.23 ± 0.0127 kcal/mol
1273.2 K, x2 = 0.5122
  excess molar enthalpy: 1.24 ± 0.0127 kcal/mol
1273.2 K, x2 = 0.5486
  excess molar enthalpy: 1.22 ± 0.0124 kcal/mol
1273.2 K, x2 = 0.5801
  excess molar enthalpy: 1.2 ± 0.0122 kcal/mol
1273.2 K, x2 = 0.6078
  excess molar enthalpy: 1.18 ± 0.012 kcal/mol
1273.2 K, x2 = 0.632
  excess molar enthalpy: 1.16 ± 0.0117 kcal/mol
1273.2 K, x2 = 0.6535
  excess molar enthalpy: 1.13 ± 0.0115 kcal/mol
1273.2 K, x2 = 0.673
  excess molar enthalpy: 1.1 ± 0.0112 kcal/mol
1273.2 K, x2 = 0.6904
  excess molar enthalpy: 1.07 ± 0.011 kcal/mol
1273.2 K, x2 = 0.7077
  excess molar enthalpy: 1.04 ± 0.0105 kcal/mol
1273.2 K, x2 = 0.724
  excess molar enthalpy: 1.01 ± 0.0103 kcal/mol
1273.2 K, x2 = 0.7393
  excess molar enthalpy: 0.985 ± 0.01 kcal/mol
1273.2 K, x2 = 0.7532
  excess molar enthalpy: 0.956 ± 0.0098 kcal/mol
1273.2 K, x2 = 0.7659
  excess molar enthalpy: 0.924 ± 0.00956 kcal/mol
1273.2 K, x2 = 0.7773
  excess molar enthalpy: 0.897 ± 0.00932 kcal/mol
1273.2 K, x2 = 0.7884
  excess molar enthalpy: 0.874 ± 0.00908 kcal/mol
1273.2 K, x2 = 0.7985
  excess molar enthalpy: 0.859 ± 0.00884 kcal/mol
1273.2 K, x2 = 0.8078
  excess molar enthalpy: 0.828 ± 0.0086 kcal/mol
1273.2 K, x2 = 0.8164
  excess molar enthalpy: 0.802 ± 0.00837 kcal/mol
1273.2 K, x2 = 0.8244
  excess molar enthalpy: 0.777 ± 0.00789 kcal/mol
